We go through eleven compounds from PubChem BioAssay (NCI).

Holding throughout (experiment): NCI anticancer screen, dose series, 48 h
Test [1] relates to A498 renal.
The subject of test [2] is OVCAR-5 ovarian.
Test [3] deals with TK-10 renal.
For test [4], the system named is SR leukemia.
Test [5] deals with RPMI-8226 leukemia.
Test [6] concerns RXF 393 renal.
Test [7] has as its system SF-268 CNS.
For test [8], the system named is 786-0 renal.
The test system of test [9] is MOLT-4 leukemia.
For test [10], the system named is OVCAR-3 ovarian.

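Five compound concentrations were applied to cells in 96-well plates for 48 hours; endpoints were derived by simple linear interpolation of the resulting dose-response curve. TGI: concentration producing complete growth inhibition.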 Where only a bound is given, the exact number is not on record here.

In the case of `O=C(NO)NCCCl`, the TGI in test [1], in [2], in test [3], in [4], in test [5] and in test [6] was over 100 µM throughout. The TGI in test [7], in [8], in test [9] and in [10] was over 100 µM in each case.
Turning to `C(#CP(c1ccccc1)c1ccccc1)P(C#CP(c1ccccc1)c1ccccc1)c1ccccc1`, the TGI in [1], in test [2], in test [3], in test [4], in test [5] and in [6] was over 100 µM in each case. Further, the TGI in test [7], in test [8], in [9] and in [10] was over 100 µM each time.
Take `COc1ccc(NCC(=O)Nn2c(-c3ccccc3)nc3ccccc3c2=O)cc1`: the TGI in test [1] was 88.6 µM; in [2] it was over 100 µM; in [3] it was over 100 µM; in [4] it was over 100 µM; in test [5], over 100 µM; in [6], over 10 µM. Further, the TGI in test [7] is over 100 µM; in test [8], 73.6 µM; in test [9], over 100 µM; in test [10] it was over 100 µM.
For `CCCCCCCCCCCCCCCCNc1ccn(C2CC(O)C(COC(c3ccccc3)(c3ccccc3)c3ccc(OC)cc3)O2)c(=O)n1` (stereo not given), the TGI in test [1], in test [2], in test [3], in test [4], in test [5] and in test [6] was over 100 µM in each case. Further, the TGI in [7], in [8], in test [9] and in test [10] was over 100 µM each time.
For the compound `Cc1cccc(CC(Cc2ccc(C)cc2C(=O)O)C(=O)O)c1` (stereo not given), the TGI in [1], in test [2], in test [3], in [4], in test [5] and in [6] was over 100 µM throughout. For the same compound, the TGI in [7], in [8], in test [9] and in [10] was over 100 µM in each case.
In the case of `COc1cc(OC)c2c(c1)OC(c1cccnc1)C(c1ccccc1)C2=O` (stereo not given), the TGI in test [1], in [2], in [3], in test [4], in test [5] and in test [6] was over 100 µM in each case. Besides, the TGI in test [7], in test [8], in [9] and in test [10] was over 100 µM in each case.
In the case of `CC(C)=CC[C@]12CCN(C)[C@H]1N(S(=O)(=O)c1ccccc1)c1ccccc12`, the TGI in test [1] is over 100 µM; in test [2] it was over 100 µM; in test [3], over 100 µM; in [4], over 100 µM; in [5], over 73 µM; in test [6], over 71.7 µM. For the same compound, the TGI in test [7] was over 100 µM; in [8], over 90.9 µM; in test [9], over 100 µM; in test [10], over 74.4 µM.
With `COc1cc2c(/C=C3/C(=O)N(C)c4ccc(O)cc43)c(Cl)[nH]c2cc1C`, the TGI in test [1] turned out to be 5.39 µM; in test [2] it was 21.6 µM; in test [3] it was 20.7 µM; in test [4] it was 1.23 µM; in test [5], 4.7 µM; in test [6], 23.3 µM. Also, the TGI in [7] is 25.3 µM; in test [8], 15 µM; in test [9] it was 0.784 µM; in test [10], 0.597 µM.
For `O=C1CN(c2cccc(Cl)c2)C(=O)CN1NCNN1CC(=O)N(c2cccc(Cl)c2)CC1=O`, the TGI in test [1], in test [2], in test [3], in test [4], in [5] and in test [6] was over 100 µM in each case. Moreover, the TGI in [7], in test [8], in [9] and in test [10] was over 100 µM each time.
In the case of `OC1(c2ccc(Cl)cc2)c2ccccc2-c2nc3ccccc3n21` (stereo not given), the TGI was over 100 µM in test [1]; over 100 µM in [2]; over 100 µM in [3]; over 100 µM in test [4]; over 100 µM in [5]; 55 µM in test [6]. The TGI in test [7], in [8], in test [9] and in [10] was over 100 µM in each case.
On to `Cc1nc2sc(C(=O)c3ccc(Cl)cc3)c(N)c2c(-c2ccccc2Cl)c1C(=O)Nc1ccccc1`, for which the TGI worked out at 48 µM in test [1]; 38.6 µM in test [2]; 39.3 µM in test [3]; 58.2 µM in [4]; 62.2 µM in test [5]; 31.3 µM in [6]. The TGI in test [7] is over 94.9 µM; in test [8], 27.6 µM; in [9], 51.5 µM; in [10], 33.9 µM.
